From patent US9868977B2, “Red-shifted luciferins and methods of using same” (PROMEGA CORPORATION, priority 2013, dated 2018)

Key:
Type in all cases: biochemical
Leu-aminopeptidase = assay: Titration of Leu-aminopeptidase with pro-substrate and luciferin detection reagent; conditions: pro-substrate 20, 2 or 0.2 uM; Leu-aminopeptidase serially diluted; luminescence every 5 min for 90 min
Method: To a lyophilized vial of luciferin detection reagent (Promega; V859A), 10 ml of a solution of 100 mM HEPES pH 7.5/10 mM MgSO4 was added and allowed to equilibrate for 30 minutes at room temperature.
A 20 uM solution of Leu-luciferin and a 20 uM solution of PBI-5044 were prepared in a solution of 100 mM HEPES/0.1% Prionex. The 20 uM solution of PBI-5044 was then serially diluted in the HEPES/Prionex solution to 2 uM and 0.2 uM solutions.
1 U/ml Leu-aminopeptidase (Sigma) was serially diluted (FIG. 1) into each of the luciferin dilutions (20 uM Leu-luciferin, 20 uM PBI-5044, 2 uM PBI-5044 or 0.2 uM PBI-5044). For example, 50 ul 1 U/ml Leu-aminopeptidase was added to 450 ul luciferin dilution (final concentration of Leu-aminopeptidase was 0.1 U/ml). Leu-aminopeptidase was then serially diluted by adding 150 ul Leu-aminopeptidase solution to 350 ul of each prepared luciferin derivative.
In triplicate, 50 ul of each serially diluted Leu-aminopeptidase/luciferin sample was added to a well of a white, 96-well assay plate (Costar 3355), and 50 ul of the equilibrated luciferin detection reagent added to each sample. Luminescence was detected every 5 minutes for 90 minutes on a GloMax® Multi luminometer (Promega) at room temperature.

Aminopeptidase = assay: Multiplexing of Leu-luciferin and PBI-5044 with filtered luminescence; conditions: 20 uM Leu-Luciferin/20 uM PBI-5044; 630 long pass and 525 short pass filters
Method: To a lyophilized vial of luciferin detection reagent (Promega; V859A), 10 ml of a solution of 100 mM HEPES pH 7.5/10 mM MgSO4 was added (LDR) and allowed to equilibrate for 30 minutes at room temperature.
Aminopeptidase was diluted to 0.01 u/ml into a solution containing 100 mM HEPES pH 7.5 and 0.1% Prionex. The following solutions were then prepared in the aminopeptidase dilution: • 1. 20 uM Leu-Luciferin, • 2. 20 uM PBI-5044, • 3. 20 uM Leu-Luciferin/20 uM PBI-5044
In triplicate, 50 ul of each of the above mixtures (1-3) was added to 50 ul of LDR and incubate for 15 minutes. Luminescence was measured on a GloMax® 96 luminometer equipped with a 630 long pass filter (Edmond Optics 253253) and a 525 short pass filter (Edmond Optics 84694).

esterase = assay: Effect of esterase on bioluminescence of ester pro-substrate; conditions: serial dilutions; luciferin detection reagent with esterase, with or without UltraGlo luciferase
Method: Reconstitution buffer with esterase (10 ml; Promega Cat. No. V144A) and luciferin detection reagent (Promega; V859A) were mixed and incubated at room temperature for 30 minutes (“Luciferin Detection Reagent”). UltraGlo® luciferase (210 ul of 5.7 mg/ml; Promega) was then added to 3 mls of the luciferin detection reagent.
Serial dilutions of PBI-5045 (isonaphtholuciferin methyl ester) were made in a solution of 100 mM HEPES/10 mM MgSO4. 50 ul of each serially diluted PBI-5045 was then added to a well of a white, 96-well assay plate (n=6). Then, either 50 ul luciferin detection reagent or luciferin detection reagent with UltraGlo® luciferase was added to the wells. Luminescence was detected on a GloMax® Multi+ luminometer (Promega).
FIGS. 4A and 4B show the effects of esterase on PBI-5045.

Structure (SMILES)	bioluminescent response as a function of added aminopeptidase (reporting protease activity) (Leu-aminopeptidase)	separation of bioluminescence from luciferin by filters (multiplexing) (Aminopeptidase)	luminescence in presence of esterase (reporting esterase activity) (esterase)
CC(C)C[C@H](N)C(=O)Nc1ccc2c(ccc3nc(C4=NC(C(=O)O)CS4)sc32)c1 (stereo partly drawn) [PBI-5044, 2-(7-(Leucinyl)aminonaphtho[2,1-d]thiazol-2-yl)-4,5-dihydrothiazole-4-carboxylic acid]	successful use in reporting protease activity	luminescence from each detected with little interference from the other	
COC(=O)C1CSC(c2nc3ccc4cc(O)ccc4c3s2)=N1 (stereo not drawn) [PBI-5045, 2-(7-Hydroxynaphtho[2,1-d]thiazol-2-yl)-4,5-dihydrothiazole-4-carboxylic acid methyl ester]			successful use in reporting esterase activity
